The values below come from patent US10335372B2, “Compositions with modified nucleases targeted to viral nucleic acids and methods of use for prevention and treatment of viral diseases” (priority 2004, dated 2019).

This experiment deals with FMDV of O-type. As to conditions: guinea pig, in vivo.

Turning to “RNase: recombinant / wild-type human RNase I (Examples 22, 30, 31)”, the “resistance to FMD on repeated infection” value is reported as “resistant to FMD following subsequent repeated infection”.
